In patent US9290451B2 (Hoffmann-La Roche Inc., priority 2011, dated 2016) one finds EC50 data, which are given here for 20 compounds.

pEC50: −log10 of the molar value.

For one assay, the target named is human CB1 receptors (Homo sapiens (Human), UniProt P21554). The experiment in a line: cAMP assay, CHO cells expressing human CB1 receptors. The class given is cell-based. The following applies: CHO cells expressing human CB1, cAMP; read-out: human CB1 EC50. The gist of the method: (§1)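 EC50 values come from a TR-FRET cAMP read-out (standard curve 10 μM–0.13 nM cAMP) after 30 min compound exposure at 30 °C in IBMX (1 mM)-containing Krebs Ringer bicarbonate buffer, using CHO cells carrying human CB1 or CB2 receptors.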
Chain of human CB1 receptors (P21554 whole entry): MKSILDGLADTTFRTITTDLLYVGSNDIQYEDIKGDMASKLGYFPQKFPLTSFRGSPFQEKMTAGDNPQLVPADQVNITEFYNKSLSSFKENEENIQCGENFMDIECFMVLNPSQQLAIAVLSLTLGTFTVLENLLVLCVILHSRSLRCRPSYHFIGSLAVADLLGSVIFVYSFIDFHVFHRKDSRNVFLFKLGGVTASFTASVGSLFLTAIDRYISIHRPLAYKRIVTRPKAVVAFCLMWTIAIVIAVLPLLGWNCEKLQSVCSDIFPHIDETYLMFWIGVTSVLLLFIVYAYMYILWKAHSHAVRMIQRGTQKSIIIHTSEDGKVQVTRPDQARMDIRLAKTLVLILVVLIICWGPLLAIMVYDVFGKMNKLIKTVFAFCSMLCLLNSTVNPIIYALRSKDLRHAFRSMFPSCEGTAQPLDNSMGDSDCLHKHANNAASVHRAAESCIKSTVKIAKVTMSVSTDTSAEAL
Background: cAMP levels reflect the balance of adenylyl cyclase and phosphodiesterase activity.

Another assay concerns the target human CB2 receptors (Homo sapiens (Human), UniProt P34972). In words: cAMP assay, CHO cells expressing human CB2 receptors. The class given is cell-based. The settings on record: CHO cells expressing human CB2, cAMP; read-out: human CB2 EC50. An outline of the steps:
as §1

Chain of human CB2 receptors (P34972 whole entry): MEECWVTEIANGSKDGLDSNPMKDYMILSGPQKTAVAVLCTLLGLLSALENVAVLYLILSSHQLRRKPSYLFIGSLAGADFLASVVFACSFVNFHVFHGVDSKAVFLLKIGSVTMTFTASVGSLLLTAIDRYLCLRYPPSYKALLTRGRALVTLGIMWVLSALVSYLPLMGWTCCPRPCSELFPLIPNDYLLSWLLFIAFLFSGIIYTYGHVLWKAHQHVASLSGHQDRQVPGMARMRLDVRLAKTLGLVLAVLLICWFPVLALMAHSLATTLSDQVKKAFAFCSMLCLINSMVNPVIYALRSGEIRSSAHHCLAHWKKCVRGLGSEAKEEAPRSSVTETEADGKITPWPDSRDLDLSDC

Regarding `CSCC[C@H](NC(=O)c1ccc(N2CC(F)(F)C2)c(OCC2CC2)n1)C(N)=O` [Example 342, 6-Cyclopropylmethoxy-5-(3,3-difluoro-azetidin-1-yl)-pyridine-2-carboxylic acid ((S)-1-carbamoyl-3-methylsulfanyl-propyl)-amide], the figures for the pEC50 at human CB1 receptors and at human CB2 receptors were less than 5.00 and 8.55, respectively.
As for `Cc1nc([C@H](CC2CC2)NC(=O)c2cccc(-c3ccc(F)c(Cl)c3)n2)no1` [Example 343, 6-(3-Chloro-4-fluoro-phenyl)-pyridine-2-carboxylic acid [(S)-2-cyclopropyl-1-(5-methyl-[1,2,4]oxadiazol-3-yl)-ethyl]-amide], the values for the negative logarithm of the EC50 (pEC50) at human CB1 receptors and at human CB2 receptors were less than 5.00 and 8.46, respectively.
Regarding `CC(C)C[C@@H](CNc1ccc([N+](=O)[O-])c2nonc12)NC(=O)c1ccc(N2CCCC2)c(OCC2CC2)n1` [Example 344, 6-Cyclopropylmethoxy-5-pyrrolidin-1-yl-pyridine-2-carboxylic acid {(S)-3-methyl-1-[(7-nitro-benzo[1,2,5]oxadiazol-4-ylamino)-methyl]-butyl}-amide], the figures for the pEC50 at human CB1 receptors and on human CB2 receptors were less than 5.00 and 7.59, respectively.
For `CS(=O)(=O)CC[C@H](NC(=O)c1ccc(N2CC(F)(F)C2)c(OCC2CC2)n1)C(N)=O` [Example 345, 6-Cyclopropylmethoxy-5-(3,3-difluoro-azetidin-1-yl)-pyridine-2-carboxylic acid ((S)-1-carbamoyl-3-methanesulfonyl-propyl)-amide], in that order: less than 5.00 and 6.53.
Taken in the same sequence, the figures for `CC(C)CSc1nc(C(=O)N[C@@H](CC(C)C)C(N)=O)ccc1C1CC1` [Example 346, 5-Cyclopropyl-6-isobutylsulfanyl-pyridine-2-carboxylic acid ((S)-1-carbamoyl-3-methyl-butyl)-amide] were less than 5.00 and 7.96.
For `Cc1nc([C@H](CC2CC2)NC(=O)c2cccc(-c3cccc(F)c3)n2)no1` [Example 347, 6-(3-Fluoro-phenyl)-pyridine-2-carboxylic acid [(S)-2-cyclopropyl-1-(5-methyl-[1,2,4]oxadiazol-3-yl)-ethyl]-amide], the pEC50 (in general, the negative decadic logarithm of the EC50, by convention in mol/L) at human CB1 receptors is less than 5.00; at human CB2 receptors, 7.30.
For `Cc1nc([C@H](CC2CC2)NC(=O)c2cccc(-c3ccc(F)c(C(F)(F)F)c3)n2)no1` [Example 348, 6-(4-Fluoro-3-trifluoromethyl-phenyl)-pyridine-2-carboxylic acid [(S)-2-cyclopropyl-1-(5-methyl-[1,2,4]oxadiazol-3-yl)-ethyl]-amide], in that order: less than 5.00 and 7.61.
Turning to `CC(C)(CCS(C)(=O)=O)NC(=O)c1ccc(C2CC2)c(OCC2CC2)n1` [Example 349, 5-Cyclopropyl-6-cyclopropylmethoxy-pyridine-2-carboxylic acid (3-methanesulfonyl-1,1-dimethyl-propyl)-amide], the figures for the negative-log EC50 (pEC50) at human CB1 receptors and on human CB2 receptors were less than 5.00 and 6.32, respectively.
For `Cc1cnc(C(C)(C)NC(=O)c2ccc(C3CC3)c(OCC3CC3)n2)s1` [Example 350, 5-Cyclopropyl-6-cyclopropylmethoxy-pyridine-2-carboxylic acid [1-methyl-1-(5-methyl-thiazol-2-yl)-ethyl]-amide], in that order: less than 5.00 and 8.44.
Taken in the same sequence, the figures for `CC(C)C[C@H](NC(=O)c1ccc(C2CC2)c(S(=O)(=O)CC(C)C)n1)C(N)=O` [Example 351, 5-Cyclopropyl-6-(2-methyl-propane-1-sulfonyl)-pyridine-2-carboxylic acid ((S)-1-carbamoyl-3-methyl-butyl)-amide] were less than 5.00 and 7.40.
Regarding `Cc1nc([C@H](CC2CC2)NC(=O)c2ccc(C3CC3)c(S(=O)(=O)CC(C)C)n2)no1` [Example 352, 5-Cyclopropyl-6-(2-methyl-propane-1-sulfonyl)-pyridine-2-carboxylic acid [(S)-2-cyclopropyl-1-(5-methyl-[1,2,4]oxadiazol-3-yl)-ethyl]-amide], the values for the pEC50 on human CB1 receptors and on human CB2 receptors were less than 5.00 and 6.72, respectively.
Taken in the same sequence, the figures for `CC(C)C[C@@H](NC(=O)c1ccc(N2CC(F)(F)C2)c(OCC2CC2)n1)c1cccnn1` [Example 354, 6-Cyclopropylmethoxy-5-(3,3-difluoro-azetidin-1-yl)-pyridine-2-carboxylic acid ((R)-3-methyl-1-pyridazin-3-yl-butyl)-amide] were less than 5.00 and 7.83.
Taken in the same sequence, the figures for `CC(C)C[C@H](NC(=O)c1ccc(N2CC(F)(F)C2)c(OCC2CC2)n1)c1cccnn1` [Example 355, 6-Cyclopropylmethoxy-5-(3,3-difluoro-azetidin-1-yl)-pyridine-2-carboxylic acid ((S)-3-methyl-1-pyridazin-3-yl-butyl)-amide] were less than 5.00 and 7.10.
As for `CCC(CC)(NC(=O)c1ccc(C2CC2)c(OCC2CC2)n1)C(=O)NCCO` [Example 356, 5-Cyclopropyl-6-cyclopropylmethoxy-pyridine-2-carboxylic acid [1-ethyl-1-(2-hydroxy-ethylcarbamoyl)-propyl]-amide], the figures for the pEC50 on human CB1 receptors and at human CB2 receptors were less than 5.00 and 8.28, respectively.
Taken in the same sequence, the figures for `Cc1nc([C@](C)(CC2CC2)NC(=O)c2ccc(C3CC3)c(OCC3CC3)n2)no1` [Example 357, 5-Cyclopropyl-6-cyclopropylmethoxy-pyridine-2-carboxylic acid [(+)-2-cyclopropyl-1-methyl-1-(5-methyl-[1,2,4]oxadiazol-3-yl)-ethyl]-amide] were 6.70 and 8.82.
For `Cc1nc([C@@](C)(CC2CC2)NC(=O)c2ccc(C3CC3)c(OCC3CC3)n2)no1` [Example 358, 5-Cyclopropyl-6-cyclopropylmethoxy-pyridine-2-carboxylic acid [(−)-2-cyclopropyl-1-methyl-1-(5-methyl-[1,2,4]oxadiazol-3-yl)-ethyl]-amide], in that order: 6.31 and 8.31.
As to `CC(C)(C)NC(=O)c1ccc(N2CC(F)(F)C2)c(OCC2CC2)n1` [Example 359, 6-Cyclopropylmethoxy-5-(3,3-difluoro-azetidin-1-yl)-pyridine-2-carboxylic acid tert-butylamide], the negative-log EC50 (pEC50) at human CB1 receptors was less than 5.00; on human CB2 receptors, 8.16.
In the case of `CCOC(=O)C(CC)(CC)NC(=O)c1ccc(C2CC2)c(S(=O)(=O)CC(C)C)n1` [Example 360, 2-{[5-Cyclopropyl-6-(2-methyl-propane-1-sulfonyl)-pyridine-2-carbonyl]-amino}-2-ethyl-butyric acid ethyl ester], the pEC50 at human CB1 receptors was 7.05; on human CB2 receptors it was 8.62.
Regarding `CNC(=O)[C@H](CC(C)(C)C)NC(=O)c1ccc(C2CC2)c(S(=O)(=O)CC(C)C)n1` [Example 361, 5-Cyclopropyl-6-(2-methyl-propane-1-sulfonyl)-pyridine-2-carboxylic acid ((S)-3,3-dimethyl-1-methylcarbamoyl-butyl)-amide], the negative logarithm of the EC50 (pEC50) on human CB1 receptors was less than 5.00; on human CB2 receptors it was 7.37.
On to `O=C(N[C@H]1CCOC1=O)c1ccc(C2CC2)c(OCC2CC2)n1` [Example 362, 5-Cyclopropyl-6-cyclopropylmethoxy-pyridine-2-carboxylic acid ((S)-2-oxo-tetrahydro-furan-3-yl)-amide], for which the negative logarithm of the EC50 (pEC50) at human CB1 receptors is less than 5.00; on human CB2 receptors it was 6.36.
